Results taken from patent publication US20100144872A1, “New Methylenebisphenyl Compounds Useful in the Treatment of Inflammation” (Biolipox AB, priority 2007, published 2010).

Each compound was assayed against T1, Recombinant human LTC4 synthase (Homo sapiens, UniProt Q16873) (assay: LTC4 synthase assay (conversion of LTA4 methyl ester to LTC4 methyl ester, HPLC)). Settings: biological test described above; PBS pH 7.4 with 5 mM GSH, substrate LTA4 methyl ester.
T1 construct: made in house; host or cells: Pichia pastoris ('Piccia pastoralis' [sic])
T1 sequence (Q16873 1-150): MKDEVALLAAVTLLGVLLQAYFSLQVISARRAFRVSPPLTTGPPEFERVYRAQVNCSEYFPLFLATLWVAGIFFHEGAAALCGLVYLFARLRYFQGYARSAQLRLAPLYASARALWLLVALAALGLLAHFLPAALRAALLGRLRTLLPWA
Assay type: biochemical
Method: In the assay LTC4 synthase catalyses the reaction where the substrate LTA4 methyl ester is converted to LTC4 methyl ester. Recombinant human LTC4 synthase is expressed in Piccia pastoralis and the purified enzyme is dissolved in 25 mM Tris-buffer pH 7.8 and stored at −20° C. The assay is performed in phosphate buffered saline (PBS) pH 7.4, supplemented with 5 mM glutathione (GSH). The reaction is terminated by addition of acetonitrile/MeOH/acetic acid (50/50/1). The assay is performed at it in 96-well plates. Analysis of the formed LTC4 methyl ester is performed with reversed phase HPLC (Waters 2795 utilizing an Onyx Monolithic C18 column). The mobile phase consists of acetonitrile/MeOH/H2O (32.5/30/37.5) with 1% acetic acid pH adjusted with NH3 to pH 5.6, and absorbance measured at 280 nm with a Waters 2487 UV-detector.
The following is added chronologically to each well: • 1. 50 μl assay buffer, PBS with 5 mM GSH. • 2. 0.5 μl inhibitor in DMSO. • 3. 2 μl LTC4 synthase in PBS. The total protein concentration in this solution is 0.025 mg/ml. Incubation of the plate at room temperature for 10 minutes. • 4. 0.5 μl LTA4 methyl ester. Incubation of the plate at it for 1 min. • 5. 50 μl stop solution. 80 μl of the incubation mixture is analysed with HPLC.
`Nc1ccc(Cc2ccc(Nc3ccc(F)cc3)c(C(=O)O)c2)cc1C(=O)O` [Example 12, 2-amino-5-(3-carboxy-4-(4-fluoro-phenylamino)benzyl)benzoic acid] showed an IC50 of 2800 nM. For `O=C(O)c1cc(Cc2ccc(NS(=O)(=O)c3ccccc3C(F)(F)F)c(C(=O)O)c2)ccc1NS(=O)(=O)c1ccccc1C(F)(F)F` [Example 69, 5,5′-methylenebis(2-(2-(trifluoromethyl)phenylsulfonamido)benzoic acid)], the IC50 was 1300 nM. `Cc1ccc(CNc2ccc(Cc3ccc(NCc4ccc(C)cc4)c(C(=O)O)c3)cc2C(=O)O)cc1` [Example 89, 5-(3-Carboxy-4-(4-methyl-benzylamino)-benzyl)-2-(4-methyl-benzylamino)-benzoic acid] was tested, and the IC50 was 3400 nM. Work on `O=C(Nc1ccc(Cc2ccc(NC(=O)Nc3c(Cl)cccc3Cl)c(C(=O)O)c2)cc1C(=O)O)Nc1c(Cl)cccc1Cl` [Example 62, 5,5′-methylenebis-(2-(3-(2,6-dichlorophenyl)-ureido)benzoic acid)] yielded an IC50 of 5800 nM. Work on `Nc1ccc(Cc2ccc(Nc3ccc(F)c(Cl)c3)c(C(=O)O)c2)cc1C(=O)O` [Example 6, 2-amino-5-(3-carboxy-4-(3-chloro-4-fluorophenylamino)benzyl)benzoic acid] yielded an IC50 of 5700 nM. For `COc1cccc(NC(=O)Nc2ccc(Cc3ccc(NC(=O)Nc4cccc(OC)c4)c(C(=O)O)c3)cc2C(=O)O)c1` [Example 55, 5,5′-methylenebis-(2-(3-(3-methoxyphenyl)-ureido)benzoic acid)], the IC50 was 1800 nM. `O=C(Nc1ccccc1F)Nc1ccc(Cc2ccc(NC(=O)Nc3ccccc3F)c(C(=O)O)c2)cc1C(=O)O` [Example 57, 5,5′-methylenebis-(2-(3-(2-fluorophenyl)-ureido)benzoic acid)] showed an IC50 of 4000 nM. Work on `Nc1ccc(Cc2ccc(Nc3ccc(Br)cc3F)c(C(=O)O)c2)cc1C(=O)O` [Example 8, 2-amino-5-(4-(4-bromo-2-fluorophenyl-amino)-3-carboxybenzyl)benzoic acid] yielded an IC50 of 740 nM. Work on `O=C(O)c1cc(Cc2ccc(NCc3cccc(OCc4ccccc4)c3)c(C(=O)O)c2)ccc1NCc1cccc(OCc2ccccc2)c1` [Example 93] yielded an IC50 of 2300 nM. Work on `CC(C)Oc1ccc(Nc2ccc(Cc3ccc(N)c(C(=O)O)c3)cc2C(=O)O)cc1` [Example 27, 2-amino-5-(3-carboxy-4-(4-isopropoxy-phenylamino)benzyl)benzoic acid] yielded an IC50 of 6410 nM. For `CC(=O)Nc1ccc(S(=O)(=O)Nc2ccc(Cc3ccc(NS(=O)(=O)c4ccc(NC(C)=O)c(Cl)c4)c(C(=O)O)c3)cc2C(=O)O)cc1Cl` [Example 67, 5,5′-methylenebis(2-(4-acetamido-3-chlorophenylsulfonamido)benzoic acid)], the IC50 was 2800 nM. `O=C(O)c1ccccc1Nc1ccc(Cc2ccc(Nc3ccccc3C(=O)O)c(C(=O)O)c2)cc1C(=O)O` [Example 9, 5,5′-methylenebis(2-(2-carboxyphenyl-amino)benzoic acid)] was tested, and the IC50 was 3400 nM. With `O=C(O)c1cc(Cc2ccc(NS(=O)(=O)c3cc(C(F)(F)F)cc(C(F)(F)F)c3)c(C(=O)O)c2)ccc1NS(=O)(=O)c1cc(C(F)(F)F)cc(C(F)(F)F)c1` [Example 74, 5,5′-methylenebis(2-(3,5-bis(trifluoromethyl)-phenylsulfonamido)benzoic acid)] the IC50 was 700 nM.
